The source of these data is US8476461B2, “Dipyrromethene-boron hydrophilic fluorescent compounds” (Centre National de la Recherche Scientifique (C.N.R.S.), priority 2008, dated 2013).

Structures are written as SMILES. Marks after values point to notes of the source that are not given here.

Series [1] is described as follows: Optical / fluorescence properties (absorption, emission, extinction coefficient, quantum yield, lifetime). Type of series: physicochemical.
A short description of series [2]: Water solubility and hydrophilic nature. Type of series: physicochemical. Conditions: for solubility in water (in words): water at pH=7, in carboxylate form.
[3] abbreviates: asterisk: in water and PBS buffer.

As to `COCCOCC#C[B-]1(C#CCOCCOC)n2c(C)cc(C)c2C(c2ccc(I)cc2)=C2C(C)=CC(C)=[N+]21` [Ia-1], in series [1] (in dichloromethane), the Φ was 65%, the ε amounted to 90000 M⁻¹ cm⁻¹, the λabs is on record as 500 nm and the λem is 511 nm.

In series [1] (in dichloromethane), `CCC1=C(C)C2=C(c3ccc(I)cc3)c3c(C)c(CC)c(C)n3[B-](C#CCOCCOC)(C#CCOCCOC)[N+]2=C1C` [Ia-2] had a Φ of 80%, a ε of 82000 M⁻¹ cm⁻¹, a λabs of 522 nm and a λem of 488 nm.

With `COCCOCC#C[B-]1(C#CCOCCOC)n2c(/C=C/c3ccc(OCCOCCOC)cc3)cc(C)c2C(c2ccc(I)cc2)=C2C(C)=CC(/C=C/c3ccc(OCCOCCOC)cc3)=[N+]21` [Ia-3], in series [1] (in dichloromethane), the Φ is 75%, the ε was 126600 M⁻¹ cm⁻¹, the λabs stood at 646 nm and the λem stood at 371 nm.

For `CCOC(=O)c1ccc(C2=C3C(C)=C(CC)C(C)=[N+]3[B-](C#CCOCCOC)(C#CCOCCOC)n3c(C)c(CC)c(C)c32)cc1` [Ia-6], in series [1] (in dichloromethane), the Φ amounted to 85%, the ε came out at 80000 M⁻¹ cm⁻¹, the λabs is on record as 522 nm and the λem amounted to 488 nm.

Turning to `COCCOCC#C[B-]1(C#CCOCCOC)n2c(C)cc(C)c2C(c2ccc(C(=O)O)cc2)=C2C(C)=CC(C)=[N+]21` [Ia-9], in series [1] (setting [3]), the Φ was 60* %, the ε is given as 74000* M^−1 cm^−1, the λabs is 494* nm and the λem was 506* nm. In series [1] (in dichloromethane), this compound gave a Φ of 50%, a ε of 78500 M⁻¹ cm⁻¹, a λabs of 501 nm and a λem of 513 nm. Besides, in series [2], the “water-soluble (in words)” value is recorded as “water-soluble” and the “solubility in water (in words)” value is on record as “soluble in water”.

Consider `CCC1=C(C)C2=C(c3ccc(C(=O)O)cc3)c3c(C)c(CC)c(C)n3[B-](C#CCOCCOC)(C#CCOCCOC)[N+]2=C1C` [Ia-10], for which, in series [1] (setting [3]), the Φ is on record as 70* %, the ε was 65000* M^−1 cm^−1, the λabs was 517* nm and the λem is on record as 530* nm. In addition, in series [2], the “water-soluble (in words)” value is on record as “water-soluble” and the “solubility in water (in words)” value was “soluble in water”.

In series [1] (in dichloromethane), `COCCOCC#C[B-]1(C#CCOCCOC)n2c(/C=C/c3ccc(OCCOCCOC)cc3)cc(C)c2C(c2ccc(C(=O)O)cc2)=C2C(C)=CC(/C=C/c3ccc(OCCOCCOC)cc3)=[N+]21` [Ia-11] showed a Φ of 74%, a ε of 118000 M⁻¹ cm⁻¹, a λabs of 647 nm and a λem of 662 nm.

Turning to `COCCOCC#C[B-]1(C#CCOCCOC)n2c(/C=C/c3ccc(OCCOCCOC)cc3)cc(C)c2C(c2ccc(C(=O)O)cc2)=C2C(C)=CC(C)=[N+]21` [Ia-12], in series [1] (setting [3]), the Φ is on record as 70* %, the ε is given as 70000* M^−1 cm^−1, the λabs is recorded as 564* nm and the λem is 578* nm. In series [2], the “water-soluble (in words)” value is “water-soluble” and the “solubility in water (in words)” value is on record as “soluble in water”.

With `COCCOCC#C[B-]1(C#CCOCCOC)n2c(C)cc(C)c2C(c2ccc(C(=O)NCCN)cc2)=C2C(C)=CC(C)=[N+]21` [Ia-13], in series [1] (in dichloromethane), the Φ came out at 30%, the ε was found to be 65000 M⁻¹ cm⁻¹, the λabs came out at 500 nm and the λem is given as 513 nm.

Turning to `CCOC(=O)CNC(=O)c1ccc(C2=C3C(C)=CC(C)=[N+]3[B-](C#CCOCCOC)(C#CCOCCOC)n3c(C)cc(C)c32)cc1` [Ia-14], in series [1] (in dichloromethane), the Φ was 80%, the ε came out at 84000 M⁻¹ cm⁻¹, the λabs turned out to be 501 nm and the λem is on record as 511 nm.

Take `COCCOCC#C[B-]1(C#CCOCCOC)n2c(C)cc(C)c2C(c2ccc(C(=O)NCC(=O)O)cc2)=C2C(C)=CC(C)=[N+]21` [Ia-15]: in series [1] (setting [3]), the Φ is recorded as 50* %, the ε is 62000* M^−1 cm^−1, the λabs is 495* nm and the λem is recorded as 507* nm. In series [1] (in dichloromethane), this compound displayed a Φ of 60%, a ε of 67000 M⁻¹ cm⁻¹, a λabs of 501 nm and a λem of 511 nm. For the same compound, the “water-soluble (in words)” value in series [2] is recorded as “water-soluble”.

As to `CCC1=C(C)C2=C(c3ccc(I)cc3)c3c(C)c(CC)c(C)n3[B-](C#CCN(C)C)(C#CCN(C)C)[N+]2=C1C` [Ic-0], the “ζ (fluorescence lifetime)” value in series [1] (CH2Cl2) is 6.6 ns. In addition, in series [1] (CH2Cl2, 6.1×10^−7 M), the “Fluorescence λem” value was 533 nm and the “Fluorescence φ” value was found to be 48%.

Consider `CCC1=C(C)C2=C(c3ccc(I)cc3)c3c(C)c(CC)c(C)n3[B-](C#CC[N+](C)(C)CCCS(=O)(=O)[O-])(C#CC[N+](C)(C)CCCS(=O)(=O)[O-])[N+]2=C1C` [Ic-1], for which, in series [1] (EtOH), the “Fluorescence λem” value turned out to be 532 nm and the “Fluorescence φ” value turned out to be 71%. Besides, the “fluorescence lifetime” value in series [1] (H2O) worked out at 7.0 ns. Also, in series [1] (PBS buffer, 4.6×10^−7 M), the “Fluorescence λem” value is listed as 530 nm and the “Fluorescence φ” value is reported as 61%. Also, in series [1] (setting [3]), the Φ is listed as 61* %, the ε was 72000* M^−1 cm^−1, the λabs was 519* nm and the λem is on record as 530* nm. In addition, in series [2], the “water-soluble (in words)” value is recorded as “water-soluble”.

With `CCOC(=O)c1ccc(C2=C3C(C)=C(CC)C(C)=[N+]3[B-](C#CC[N+](C)(C)CCCS(=O)(=O)[O-])(C#CC[N+](C)(C)CCCS(=O)(=O)[O-])n3c(C)c(CC)c(C)c32)cc1` [Ic-2], in series [1] (EtOH), the “Fluorescence λem” value was found to be 533 nm and the “Fluorescence φ” value turned out to be 45%.

Regarding `CCC1=C(C)C2=C(c3ccc(C#Cc4ccc5ccc6c(C(=O)OCCOCCOC)ccc7ccc4c5c76)cc3)c3c(C)c(CC)c(C)n3[B-](C#CC[N+](C)(C)CCCS(=O)(=O)[O-])(C#CC[N+](C)(C)CCCS(=O)(=O)[O-])[N+]2=C1C` [Ic-3], in series [1] (EtOH), the “Fluorescence λem” value is listed as 533 nm and the “Fluorescence φ” value stood at 39%.
